Measurements from US9943489B2 (PHARMATWOB LTD., priority 2010, dated 2018).

Tests used:
MPTP mouse model of PD [1] = assay: Aminoindan in MPTP mouse model of PD, striatal dopamine by HPLC; format: in vivo; settings: MPTP mice; SR by ALZET pump for 12 days, compared with vehicle or daily IP injection of same drug
Method: (§1) Striatum tissue samples were homogenized in ice in 500 μl homogenization buffer (0.1M perchloric acid, 0.02% EDTA and 1% ETOH) using OMNI Tip homogenizing kit of OMNI International (intermediate speed, 3×10 seconds with 5 seconds intervals). The homogenates were sonicated for 5 min and were then centrifuged at 15,000 rpm at 4° C. for 15 min. The supernatants were transferred into fresh tubes and dopamine content was analyzed by HPLC.
Male C57B1/6 mice weighing 20+/−1 g were used in all experiments (10 mice per group). MPTP was administrated by IP injection at a dose of 40 mg/Kg per day for 5 days. Controls were naïve untreated mice injected with saline, and MPTP-treated mice injected with saline. Aminoindan was applied for 12 days either by daily IP injection or by sustained release using an ALZET pump implanted IP. The effect of the treatments was assessed by measurement of dopamine and its metabolites (dihydroxyphenylacetic acid and homovanillic acid) in left and right striatum taken from the mice at the end of the experiment. Striatum tissue samples were prepared for HPLC as described in Experimental.

MPTP mouse model of PD [2] = assay: Rasagiline-pramipexole combinations in MPTP mouse model of PD, striatal dopamine by HPLC; format: in vivo; settings: for dopamine levels compared to naïve mice: sustained release over 24 hours
Text: A significant body of biochemical data from human brain autopsy studies and those from animal models point to an ongoing process of oxidative stress in the substantia nigra which could initiate dopaminergic neurodegeneration.
MPTP is converted in the brain into the positively charged molecule MPP^+ (1-methyl-4-phenylpyridinium) by the enzyme monoamine oxidase (MAO)-B, causing parkinsonism in primates by killing certain dopamine-producing neurons in the substantia nigra. MPP^+ acts by interfering with oxidative phosphorylation in mitochondria, causing depletion of ATP and cell death.
as §1
The study included 10 groups of about 7-9 mice each, which were treated according to Table 1. […] MPTP was daily injected, during the initial 5 days (days 0-4), and the drug combinations were administered on days 0-11, either IP or using ALZET pump (ALZET micro-osmotic pump, model 1002 with a rate of 0.25 μl/hr, DURECT Corporation, Cupertino, USA) to simulate sustained release. Groups 5-7 were administered with the drug combination 30 min before MPTP application, daily during the initial five days (day 0-4), and on the following days (5-11) drugs are administrated approximately at the same time each dosing day. The ALZET pump was intraperitonealy implanted 15-17 hours before first MPTP administration (groups 8-10), and the total amount of drugs applied by the pump during the dosing period was identical to that given to the IP-injected groups. Controls were naïve untreated mice injected with saline, and MPTP-administered mice injected with saline.
Body weight was measured prior to dosing and every day during the dosing, and individual body weight changes were calculated. Clinical signs were recorded twice weekly throughout the entire study. At study termination day 12, all animals were euthanatized via CO2 asphyxiation. The brain was rapidly removed, placed on a refrigerated plate and dissected. The left and right striatum were removed, weighted, snap-frozen in liquid nitrogen, and stored in −70° C. until further processing. Striatum tissue samples were prepared for HPLC as described in Experimental.

[3] = rat, in vivo, 1.5 mg/kg
Method: The cannulas were placed either in the colon, duodenum and jugular vein for colonic bolus, duodenal bolus and intravenous bolus administration, respectively. A single bolus dose administration to each compartment was done. In addition, a second indwelling cannula was placed in the right vein of each animal for systemic blood sampling. Blood samples (0.5 ml) were taken at 5 minutes pre-dose, 5, 15, 30, 50, 90, 150 and 200 minutes post-dose. To prevent dehydration, equal volumes of physiological solution were administrated to the rats following each withdrawal of blood sample. […] Non-compartmental pharmacokinetic analysis was performed using Excel software. The area under the curve (AUC) was calculated by non-compartmental analysis to the final measurable sample using the linear-log trapezoid method.

6-OHDA rat model of PD = settings: 6-OHDA rats; SR by ALZET pump 28 days compared with daily IP injections; amphetamine 1.5 mg/kg IP, 60 min recording
Text: Since in PD it is mainly the dopaminergic nigrostriatal pathway that is subject to degeneration, animal models have been developed in which 6-OHDA lesions of the dopaminergic system were made by unilateral injection of the toxin directly into major efferent projection of the nigrostriatal bundle.
Unilaterally lesioning of the Medial Forebrain Bundle (MFB) by 6-OHDA causes unilaterally destruction of the dopaminergic neurons of the nigrostriatal pathway leading to asymmetry in motor behavior of rats. […] More specifically, administration of the DA-releasing agent D-amphetamine creates a dopamine imbalance that favors the nonlesioned nigrostriatal projection and thus produces clockwise rotations. […] Drug-induced rotations are measured using an automated rotometer consisting of a rotation bowl and a swivel attached to the torso of the rat.
Male adult Sprague-Dawley rats weighing 250-300 g were lesioned with 6-OHDA in the middle forebrain bundle (MFB). Rats were anesthetized with Ketamine-Xylazine (85:15) 0.1 ml/100 g and mounted in the stereotaxic apparatus. 6-OHDA was injected into unilateral MFB according to the following stereotaxic coordinates: AP-2.8 mm, ML-2 mm relatively to the bregma, and DV-9 relatively from the Dura. The injection rate was 1 μl/min using an injection pump and Hamilton micro-syringe. […]

Compound | brain dopamine levels (MPTP mouse model of PD [1]) | dopamine content compared to naïve mice (MPTP mouse model of PD [2]; acute administration, rasagiline 0.1, 0.12 or 0.15 mg/kg (similar effect)) | dopamine levels compared to naïve mice (MPTP mouse model of PD [2]; rasagiline 0.1 mg/kg) | dopamine levels compared to naïve mice (MPTP mouse model of PD [2]; rasagiline 0.12 mg/kg) | dopamine levels compared to naïve mice (MPTP mouse model of PD [2]; rasagiline 0.15 mg/kg) | F (% of IV dose) [3] | AUC ([3]; iv) | CL ([3]; iv) | T1/2 ([3]; iv) | Vss ([3]; iv) | amphetamine-induced net rotation (CW-CCW) (6-OHDA rat model of PD)
NC1CCc2ccccc21 (centres unmarked) [aminoindan, 1-aminoindan] | significant restoration of dopamine levels |  |  |  |  |  |  |  |  |  | 
C#CCN[C@@H]1CCc2ccccc21 [rasagiline, R(+)—N-propargyl-1-aminoindan] |  | around 60% | 57% | 74% | 88% | ~100% | 23,641 ± 3,481 hr * ng/ml | 54.3 ± 7.1 mL/min/kg | 42.7 ± 5.5 min | 2,404 ± 408 ml/Kg | significantly improved effect in net rotation
